Data: US8999995B2, “Isotopically enriched arylsulfonamide CCR3 antagonists” (Axikin Pharmaceuticals, Inc., priority 2010, dated 2015)
Read-outs that look alike come from different tables or passages of the source.

What was measured:
CCR3 receptor = biological target: T1, CCR3 receptor (UniProt P51677); experiment: CCR3 receptor binding assay ([125I]-labeled human eotaxin/CCL11 displacement on cells); conditions: 0.1 nM [125I]-labeled human eotaxin/CCL11, 60 min at room temperature
T1 sequence (P51677 1-355): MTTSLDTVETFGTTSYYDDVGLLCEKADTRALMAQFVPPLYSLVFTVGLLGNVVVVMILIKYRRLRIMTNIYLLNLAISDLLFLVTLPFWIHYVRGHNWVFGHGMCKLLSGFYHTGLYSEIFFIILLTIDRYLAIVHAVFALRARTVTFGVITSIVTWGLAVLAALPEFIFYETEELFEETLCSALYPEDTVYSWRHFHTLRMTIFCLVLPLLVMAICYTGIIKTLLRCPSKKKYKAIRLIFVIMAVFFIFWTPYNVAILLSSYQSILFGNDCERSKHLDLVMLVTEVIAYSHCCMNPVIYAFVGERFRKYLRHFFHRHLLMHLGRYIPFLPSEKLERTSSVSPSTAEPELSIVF
Method: Cells were washed once with PBS and resuspended in a binding buffer (25 mM HEPES pH 7.6, 5 mM MgCl2, 1 mM CaCl2, 0.5% BSA, 0.1% NaN3). […] of cell suspension (2×10^5 cells/well) and 0.1 nM [^125I]-labeled human eotaxin/CCL11 (2000 Ci/mmol specific activity) were mixed in a 96-well U-bottom polypropylene plate, and incubated for 60 min at room temperature for the binding reaction. The cell suspension was then transferred to a filtration plate (#MAFB, Millipore), and washed 3 times with the binding buffer containing 0.5 M NaCl, scintillant added, and the radioactivity was counted on a TopCount (Packard). For the determination of non-specific binding, the cell suspension and [^125I]-labeled human eotaxin/CCL11 were incubated in the presence of 500 nM of unlabeled human eotaxin/CCL11. See, Iino et al., “Molecular cloning and functional characterization of cynomolgus monkey (Macaca fascicularis) CC chemokine receptor, CCR3,” Cytokine 2002, 19, 276-286.

[1] = Pharmacokinetic studies in male CD1 mice (PO and IV dosing, plasma by HPLC and MS); assay type: in vivo, mouse; conditions: for Cmax / AUC(0-inf): male, CD1, mouse
Method: Pharmacokinetic properties of compounds A1 and A2 were determined using 144 male CD1 mice, each approximately 25 g. Animals were acclimated for 2-3 days prior to study. Body weights of animals were measured for randomization. Animals were randomized into groups of 3 mice by body weights. Compounds A1 and A2 were provided at 2 mg/mL for oral dosing and 0.2 mg/mL for intravenous dosing. Each mouse received 100 μL of a test compound (or a body weight justified dose (5 mL/kg) via PO or IV on dosing days. Approximately 1.0 mL of the whole blood was collected for each animal via cardiac puncture at each time points. The blood was collected into lithium heparin tubes, processed to plasma, and snap frozen in dry ice. Plasma samples were stored at −80° C. before analysis. The samples were further analyzed by HPLC and MS.

Ki (CCR3 receptor): 5.4 nM | Cmax ([1]; oral, 10 mg/kg, 2 mg/mL oral, 0.2 mg/mL intravenous dosing, 5 mL/kg, read-out: Cmax): 149 ng/mL | AUC(0-inf) ([1]; oral, 10 mg/kg, AUCinf,norm, dose-normalised, heading: AUCinf,norm): 106 ng·h/mL | Cmax ([1]; oral, 10 mg/kg, dose-normalised, read-out: Cmax,norm): 14.9 ng/mL | AUC(0-inf) ([1]; oral, 10 mg/kg, read-out: AUCinf): 1060 ng·h/mL | MRT ([1]; mouse): 6.9 h | half-life ([1]; mouse): 2.51 h | bioavailability ([1]; mouse, PO versus IV): 31.8% | Tmax ([1]; mouse, oral, 10 mg/kg): 0.5 h
SMILES: [2H]c1c([2H])c(Sc2cc(Cl)cc(Cl)c2)c(S(=O)(=O)N2CCN(C3CCCC3)CC2)c([2H])c1C#N [Compound A1]
